Test results as given in the supplement of paper PMC10627819.

How the values were obtained:
S. aureus Newman = assay: Bliss interaction score (quartile over a dose matrix) (fitness difference); higher = more antagonism (negative = synergy)
Procedure, shortened: (§1)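 Fitness was OD595 at entry into stationary phase divided by the plate's robust no-drug mean and capped at 1; single-drug fitness was inferred from combination data. The Bliss score is observed minus expected (product) fitness, summarised by quartiles over technical, biological and donor/recipient replicates.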

S. pneumoniae D39V [1] = assay: as above
Procedure, shortened: as §1

B. subtilis 168 [2] = assay: as above
Procedure, shortened: as §1

S. aureus DSM 20231 [3] = assay: as above
Procedure, shortened: as §1

S. pneumoniae D39V [4] = assay: fitness (endpoint OD595 vs no drug) (fraction); higher = more growth
Procedure, shortened: (§2)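 Plates with 384 wells were inoculated at OD595 0.01 using 30 µl of TSB, LB Lennox or CY, or 55 µl for S. pneumoniae. Incubation was at 37 °C, with OD595 measured every 30 min for 14 h. Fitness is the stationary-phase transition optical density over the robust mean of no-drug control wells, after first-reading background subtraction; it is capped at 1.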

B. subtilis 168 [5] = assay: as above
Procedure, shortened: as §2

S. aureus DSM 20231 [6] = assay: as above
Procedure, shortened: as §2
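For Bliss interaction score (quartile over a dose matrix) in this document: first quartile when negative (synergy) and third quartile when positive (antagonism).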

CCC[C@@H]1C[C@@H](C(=O)N[C@@H]([C@H]2O[C@H](SC)[C@H](O)[C@@H](O)[C@H]2O)[C@@H](C)O)N(C)C1 [Lincomycin] + C[n+]1ccc(-c2cc[n+](C)cc2)cc1 [Paraquat]
Details | Bliss interaction score
B. subtilis 168 [2] | 0.0402
S. aureus DSM 20231 [3] | -0.0564
S. aureus Newman | -0.191
S. pneumoniae D39V [1] | 0.0842

fitness, S. pneumoniae D39V [4], one replicate
Details | first compound 0.2 µg/mL | first compound 0.4 µg/mL | first compound 0.8 µg/mL
partner 1.5 µg/mL | 0.83 | 0.758 | 0.675
partner 3 µg/mL | 0.866 | 0.751 | 0.729
partner 6 µg/mL | 0.889 | 0.802 | 0.776

Details | fitness
B. subtilis 168 [5], first compound 0.1 µg/mL, partner 1.25 µg/mL | 0.92
B. subtilis 168 [5], first compound 0.1 µg/mL, partner 2.5 µg/mL | 0.92
B. subtilis 168 [5], first compound 0.1 µg/mL, partner 5 µg/mL | 0.968
B. subtilis 168 [5], first compound 0.2 µg/mL, partner 1.25 µg/mL | 0.923
B. subtilis 168 [5], first compound 0.2 µg/mL, partner 2.5 µg/mL | 0.855
B. subtilis 168 [5], first compound 0.2 µg/mL, partner 5 µg/mL | 0.833
B. subtilis 168 [5], first compound 0.4 µg/mL, partner 1.25 µg/mL | 0.878
B. subtilis 168 [5], first compound 0.4 µg/mL, partner 2.5 µg/mL | 0.845
B. subtilis 168 [5], first compound 0.4 µg/mL, partner 5 µg/mL | 0.814
S. aureus DSM 20231 [6], first compound 0.1 µg/mL, partner 1.25 µg/mL | 0.801
S. aureus DSM 20231 [6], first compound 0.1 µg/mL, partner 2.5 µg/mL | 0.802
S. aureus DSM 20231 [6], first compound 0.1 µg/mL, partner 5 µg/mL | 0.838
S. aureus DSM 20231 [6], first compound 0.2 µg/mL, partner 1.25 µg/mL | 0.739
S. aureus DSM 20231 [6], first compound 0.2 µg/mL, partner 2.5 µg/mL | 0.719
S. aureus DSM 20231 [6], first compound 0.2 µg/mL, partner 5 µg/mL | 0.692
S. aureus DSM 20231 [6], first compound 0.4 µg/mL, partner 5 µg/mL | 0.28
S. pneumoniae D39V [4], first compound 0.215 µg/mL, partner 1.5 µg/mL | 0.885
S. pneumoniae D39V [4], first compound 0.215 µg/mL, partner 3 µg/mL | 0.863
S. pneumoniae D39V [4], first compound 0.215 µg/mL, partner 6 µg/mL | 0.814
S. pneumoniae D39V [4], first compound 0.43 µg/mL, partner 1.5 µg/mL | 0.774
S. pneumoniae D39V [4], first compound 0.43 µg/mL, partner 3 µg/mL | 0.733
S. pneumoniae D39V [4], first compound 0.43 µg/mL, partner 6 µg/mL | 0.711
S. pneumoniae D39V [4], first compound 0.86 µg/mL, partner 1.5 µg/mL | 0.56
S. pneumoniae D39V [4], first compound 0.86 µg/mL, partner 3 µg/mL | 0.407
S. pneumoniae D39V [4], first compound 0.86 µg/mL, partner 6 µg/mL | 0.453

CCC[C@@H]1C[C@@H](C(=O)N[C@@H]([C@H]2O[C@H](SC)[C@H](O)[C@@H](O)[C@H]2O)[C@@H](C)O)N(C)C1 [Lincomycin] + Cc1cc(NS(=O)(=O)c2ccc(N)cc2)no1 [Sulfamethoxazol]
Details | Bliss interaction score
B. subtilis 168 [2] | -0.0615
S. aureus DSM 20231 [3] | -0.0797
S. aureus Newman | 0.0671
S. pneumoniae D39V [1] | -0.128

fitness, one replicate
Details | first compound 0.2 µg/mL | first compound 0.4 µg/mL | first compound 0.8 µg/mL | first compound 1.6 µg/mL
B. subtilis 168 [5], partner 0.5 µg/mL | – | 0.903 | 0.806 | 0.862
B. subtilis 168 [5], partner 1 µg/mL | – | – | 0.76 | 0.698
B. subtilis 168 [5], partner 2 µg/mL | – | – | 0.795 | 0.788
S. pneumoniae D39V [4], partner 1 µg/mL | 0.731 | 0.674 | 0.323 | –
S. pneumoniae D39V [4], partner 2 µg/mL | 0.761 | 0.688 | 0.346 | –
S. pneumoniae D39V [4], partner 4 µg/mL | 0.724 | 0.621 | 0.308 | –

fitness
Details | first compound 0.1 µg/mL | first compound 0.2 µg/mL | first compound 0.215 µg/mL | first compound 0.4 µg/mL | first compound 0.43 µg/mL | first compound 0.86 µg/mL
B. subtilis 168 [5], partner 1 µg/mL | 0.831 | 0.862 | – | 0.891 | – | –
B. subtilis 168 [5], partner 2 µg/mL | 0.872 | 0.874 | – | 0.841 | – | –
B. subtilis 168 [5], partner 4 µg/mL | 0.893 | 0.938 | – | 0.895 | – | –
S. aureus DSM 20231 [6], partner 1 µg/mL | 0.82 | 0.616 | – | 0.343 | – | –
S. aureus DSM 20231 [6], partner 2 µg/mL | 0.815 | 0.687 | – | 0.37 | – | –
S. aureus DSM 20231 [6], partner 4 µg/mL | 0.828 | 0.697 | – | 0.304 | – | –
S. pneumoniae D39V [4], partner 1 µg/mL | – | – | 0.746 | – | 0.658 | 0.252
S. pneumoniae D39V [4], partner 2 µg/mL | – | – | 0.762 | – | 0.676 | 0.214
S. pneumoniae D39V [4], partner 4 µg/mL | – | – | 0.786 | – | 0.691 | 0.265

CCC[C@@H]1C[C@@H](C(=O)N[C@@H]([C@H]2O[C@H](SC)[C@H](O)[C@@H](O)[C@H]2O)[C@@H](C)O)N(C)C1 [Lincomycin] + Cc1ncc([N+](=O)[O-])n1CCO [Metronidazole]
Details | Bliss interaction score
B. subtilis 168 [2] | -0.0532
S. aureus DSM 20231 [3] | 0.0836
S. aureus Newman | 0.073
S. pneumoniae D39V [1] | 0.138

Details | fitness
B. subtilis 168 [5], first compound 0.1 µg/mL, partner 0.625 µg/mL | 0.971
B. subtilis 168 [5], first compound 0.1 µg/mL, partner 1.25 µg/mL | 0.93
B. subtilis 168 [5], first compound 0.1 µg/mL, partner 2.5 µg/mL | 0.887
B. subtilis 168 [5], first compound 0.2 µg/mL, partner 0.625 µg/mL | 0.928
B. subtilis 168 [5], first compound 0.2 µg/mL, partner 1.25 µg/mL | 0.9
B. subtilis 168 [5], first compound 0.2 µg/mL, partner 2.5 µg/mL | 0.876
B. subtilis 168 [5], first compound 0.4 µg/mL, partner 0.625 µg/mL | 0.991
B. subtilis 168 [5], first compound 0.4 µg/mL, partner 1.25 µg/mL | 0.894
B. subtilis 168 [5], first compound 0.4 µg/mL, partner 2.5 µg/mL | 0.933
S. aureus DSM 20231 [6], first compound 0.1 µg/mL, partner 0.625 µg/mL | 0.884
S. aureus DSM 20231 [6], first compound 0.1 µg/mL, partner 1.25 µg/mL | 0.953
S. aureus DSM 20231 [6], first compound 0.1 µg/mL, partner 2.5 µg/mL | ≥ 1
S. aureus DSM 20231 [6], first compound 0.2 µg/mL, partner 0.625 µg/mL | 0.812
S. aureus DSM 20231 [6], first compound 0.2 µg/mL, partner 1.25 µg/mL | 0.853
S. aureus DSM 20231 [6], first compound 0.2 µg/mL, partner 2.5 µg/mL | 0.866
S. pneumoniae D39V [4], first compound 0.2 µg/mL, partner 1.073 µg/mL | 0.752
S. pneumoniae D39V [4], first compound 0.2 µg/mL, partner 2.145 µg/mL | 0.681
S. pneumoniae D39V [4], first compound 0.2 µg/mL, partner 4.29 µg/mL | 0.659
S. pneumoniae D39V [4], first compound 0.215 µg/mL, partner 1.25 µg/mL | 0.874
S. pneumoniae D39V [4], first compound 0.215 µg/mL, partner 2.5 µg/mL | 0.87
S. pneumoniae D39V [4], first compound 0.215 µg/mL, partner 5 µg/mL | 0.844
S. pneumoniae D39V [4], first compound 0.4 µg/mL, partner 1.073 µg/mL | 0.68
S. pneumoniae D39V [4], first compound 0.4 µg/mL, partner 2.145 µg/mL | 0.654
S. pneumoniae D39V [4], first compound 0.4 µg/mL, partner 4.29 µg/mL | 0.647
S. pneumoniae D39V [4], first compound 0.43 µg/mL, partner 1.25 µg/mL | 0.765
S. pneumoniae D39V [4], first compound 0.43 µg/mL, partner 2.5 µg/mL | 0.761
S. pneumoniae D39V [4], first compound 0.43 µg/mL, partner 5 µg/mL | 0.738
S. pneumoniae D39V [4], first compound 0.8 µg/mL, partner 1.073 µg/mL | 0.502
S. pneumoniae D39V [4], first compound 0.8 µg/mL, partner 2.145 µg/mL | 0.435
S. pneumoniae D39V [4], first compound 0.8 µg/mL, partner 4.29 µg/mL | 0.428
S. pneumoniae D39V [4], first compound 0.86 µg/mL, partner 1.25 µg/mL | 0.579
S. pneumoniae D39V [4], first compound 0.86 µg/mL, partner 2.5 µg/mL | 0.578
S. pneumoniae D39V [4], first compound 0.86 µg/mL, partner 5 µg/mL | 0.557

CCC[C@@H]1C[C@@H](C(=O)N[C@@H]([C@H]2O[C@H](SC)[C@H](O)[C@@H](O)[C@H]2O)[C@@H](C)O)N(C)C1 [Lincomycin] + Cc1onc(-c2ccccc2)c1C(=O)N[C@@H]1C(=O)N2[C@@H]1SC(C)(C)[C@@H]2C(=O)O [Oxacillin]
Details | Bliss interaction score
B. subtilis 168 [2] | -0.0676
S. aureus DSM 20231 [3] | 0.119
S. aureus Newman | 0.137
S. pneumoniae D39V [1] | 0.189

fitness
Details | first compound 0.1 µg/mL | first compound 0.2 µg/mL | first compound 0.215 µg/mL | first compound 0.4 µg/mL | first compound 0.43 µg/mL | first compound 0.8 µg/mL | first compound 0.86 µg/mL
B. subtilis 168 [5], partner 0.002 µg/mL | 0.911 | 0.939 | – | 0.913 | – | – | –
B. subtilis 168 [5], partner 0.004 µg/mL | 0.881 | 0.923 | – | 0.926 | – | – | –
B. subtilis 168 [5], partner 0.008 µg/mL | 0.891 | 0.877 | – | 0.83 | – | – | –
S. aureus DSM 20231 [6], partner 0.0156 µg/mL | 0.785 | 0.78 | – | 0.291 | – | – | –
S. aureus DSM 20231 [6], partner 0.0312 µg/mL | 0.655 | 0.682 | – | 0.259 | – | – | –
S. aureus DSM 20231 [6], partner 0.0625 µg/mL | 0.491 | 0.515 | – | 0.173 | – | – | –
S. pneumoniae D39V [4], partner 0.01 µg/mL | – | 0.765 | 0.927 | 0.63 | 0.762 | – | 0.507
S. pneumoniae D39V [4], partner 0.02 µg/mL | – | 0.764 | 0.882 | 0.588 | 0.778 | – | 0.483
S. pneumoniae D39V [4], partner 0.04 µg/mL | – | 0.509 | 0.787 | 0.403 | 0.716 | 0.139 | 0.404

fitness, B. subtilis 168 [5], one replicate
Details | partner 0.0078 µg/mL | partner 0.0155 µg/mL | partner 0.031 µg/mL | partner 0.075 µg/mL | partner 0.15 µg/mL | partner 0.3 µg/mL
first compound 0.1 µg/mL | ≥ 1 | ≥ 1 | ≥ 1 | – | – | –
first compound 0.2 µg/mL | ≥ 1 | ≥ 1 | 0.889 | – | – | –
first compound 0.4 µg/mL | ≥ 1 | ≥ 1 | 0.934 | 0.183 | 0.0398 | 0.0489
first compound 0.8 µg/mL | – | – | – | 0.403 | 0.0361 | 0.0601
first compound 1.6 µg/mL | – | – | – | 0.261 | 0.0594 | 0.0563
